{"source": "patent US12012387B2", "about": "“Triazine compound and use thereof” (priority 2018, dated 2024)", "key": {"[1]": {"test_system": "Gram-negative bacteria and Gram-positive bacteria", "experiment": "Antibacterial activity, MIC over the four strains (GM)", "format": "cell-based", "settings": "mean of the MIC values of the four strains", "description": "To confirm the antibacterial activity, a minimal inhibitory concentration (MIC) value, which is a minimum concentration at which fungus bodies are not divided, was measured. Specifically, the strains disclosed in the following table 1 were purchased, incubated in each medium up to a mid-log phase, diluted to a fungus body concentration of 2×10^5 cells/100 μl, and inoculated into a micro titrate plate (Nunc, USA). […] A control group was treated with melittine by the same method as above, so as to determine an MIC value for each strain."}, "trypsin": {"test_system": "trypsin", "experiment": "Stability against protease (radial diffusion assay after trypsin treatment)", "format": "in vitro ADME", "settings": "24 hours after trypsin culture; FIG. 2", "description": "To confirm the stability against the protease, trypsin degradation was identified by using a radial diffusion assay method after treatment with each of the triazine compounds of the following example. Specifically, the cultured strains (Escherichia coli) were incubated in 10 mL of LB medium at 37° C. for 18 hours, after which 10 μl of the culture fluid was inoculated into 10 mL of fresh BL medium and then further incubated for three hours, so as to obtain bacteria in a mid-logarithmic phase. For the radial diffusion assay method, a bacterial suspension (2×10^6 CFU/mL in LB) was mixed with 0.7% agarose and rapidly dispersed, after which the resulting mixed solution was poured into a 10 cm-long Petri dish. Each 5 μl of the triazine compound solution (10 mg/mL) of the following example was added to 25 μl of trypsin solution (0.2 μg/mL in PBS), and incubated at 37° C. for six hours. A reaction was terminated by freezing with liquid nitrogen, after which each 10 μl was taken, seeded on circular paper having a diameter of 6 mm placed on the Petri dish containing the agarose, and incubated overnight at 37° C. To quantify the inhibitory activity, the clearance zones of bacteria around the circular paper were measured to confirm the antibacterial activity. As a control group, melittine was used."}}, "data": [{"smiles": "CC[C@H](C)[C@H](NC(=O)CN)C(=O)NCC(=O)N[C@@H](C)C(=O)N[C@H](C(=O)N[C@@H](CC(C)C)C(=O)N[C@@H](CCCCN)C(=O)N[C@H](C(=O)N[C@@H](CC(C)C)C(=O)N[C@H](C(=O)N[C@H](C(=O)NCC(=O)N[C@@H](CC(C)C)C(=O)N1CCC[C@H]1C(=O)N[C@@H](C)C(=O)N[C@@H](CC(C)C)C(=O)N[C@H](C(=O)N[C@@H](CO)C(=O)N[C@@H](Cc1c[nH]c2ccccc12)C(=O)N[C@H](C(=O)N[C@@H](CCCCN)C(=O)N[C@@H](CCCNC(=N)N)C(=O)N[C@@H](CCCCN)C(=O)N[C@@H](CCCNC(=N)N)C(=O)N[C@@H](CCC(N)=O)C(=O)N[C@@H](CCC(N)=O)C(N)=O)[C@@H](C)CC)[C@@H](C)CC)[C@@H](C)O)[C@@H](C)O)C(C)C)C(C)C", "note": "[Melittin]", "values": [{"measurement": "GM", "setting": "[1]", "value": 3.8, "unit": "µM"}, {"measurement": "antibacterial activity against E. coli after trypsin culture", "setting": "trypsin", "value": "remarkable decrease in the antibacterial activity"}]}]}
